US12180193B2, “Accelerating fibrosarcoma protein degrading compounds and associated methods of use” (Arvinas Operations, Inc., priority 2020, dated 2024)
Like-named read-outs stand apart in the source and are kept apart here.

What was measured:
[1] = biological target: T1, BRAF V600E (Homo sapiens, UniProt P15056, V600E); experiment: Cellular assay of target protein degradation, T-Rex 293 cells stably transfected with HA-BRAF_V600E (HA immunofluorescence, high content imaging); type: cell-based
T1 construct: expressed in transfected cells
Summary of the method: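 24 h compound exposure, 1 μM–0.1 nM final, 0.1% DMSO, 37 °C; cells induced with 1 ng/mL doxycycline. PFA fix, Triton permeabilize, anti-HA overnight 4 °C, Hoechst/phalloidin counterstain. Output: DC50, Dmax as % control.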

[2] = biological target: T2, BRAF G466V (Homo sapiens, UniProt P15056, G466V); experiment: Cellular assay of target protein degradation, T-Rex 293 cells stably transfected with HA-BRAF G466V (HA immunofluorescence, high content imaging); type: cell-based
T2 construct: expressed in transfected cells
Summary of the method: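 24 h compound, 30 nM–3 pM final, 0.1% DMSO, 37° C; HA-BRAF G466V induced with 0.75 ng/mL doxycycline. PFA fix, Triton perm, anti-HA + Alexa fluor secondary, Hoechst/phalloidin counterstain; imaging. DC50, Dmax (% of control).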

[3] = half maximal degradation, T-Rex 293 HA-BRAF V600E; read-out: BRaf V600E DC50
[4] = maximum degradation observed, T-Rex 293 HA-BRAF V600E
[5] = half maximal degradation, T-Rex 293 HA-BRAF G466V; read-out: BRaf G466V DC50
[6] = maximum degradation observed, T-Rex 293 HA-BRAF G466V

T1 sequence (P15056 whole entry V600E): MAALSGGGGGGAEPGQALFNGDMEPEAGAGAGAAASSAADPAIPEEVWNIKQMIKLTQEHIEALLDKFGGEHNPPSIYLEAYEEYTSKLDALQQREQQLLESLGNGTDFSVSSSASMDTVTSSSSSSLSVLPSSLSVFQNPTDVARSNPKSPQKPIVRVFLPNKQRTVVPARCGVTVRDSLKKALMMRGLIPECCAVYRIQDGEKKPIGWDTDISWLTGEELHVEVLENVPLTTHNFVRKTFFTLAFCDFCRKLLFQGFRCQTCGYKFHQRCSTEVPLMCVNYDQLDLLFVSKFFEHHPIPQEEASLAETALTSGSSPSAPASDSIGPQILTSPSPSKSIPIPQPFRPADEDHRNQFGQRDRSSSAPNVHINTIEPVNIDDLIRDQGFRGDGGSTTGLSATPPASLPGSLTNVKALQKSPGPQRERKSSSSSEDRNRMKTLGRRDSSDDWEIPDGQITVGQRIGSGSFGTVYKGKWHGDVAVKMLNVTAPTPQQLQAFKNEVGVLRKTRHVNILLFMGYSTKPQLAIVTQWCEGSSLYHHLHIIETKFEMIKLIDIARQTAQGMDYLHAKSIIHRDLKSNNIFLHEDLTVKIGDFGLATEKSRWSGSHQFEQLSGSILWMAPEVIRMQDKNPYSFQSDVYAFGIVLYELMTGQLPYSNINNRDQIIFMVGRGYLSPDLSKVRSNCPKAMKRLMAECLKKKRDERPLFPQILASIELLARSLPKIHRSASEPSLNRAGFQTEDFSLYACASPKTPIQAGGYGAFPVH
T2 sequence (P15056 whole entry G466V): as the sequence (P15056 whole entry V600E) above, with G466V, E600V counted along it

Row | DC50 [1, 3] [nM] | Dmax [1, 4] [%] | DC50 [2, 5] [nM] | Dmax [2, 6] [%] | Compound | DC50 ([1]; read-out: BRaf V600E DC50; half maximal degradation, T-Rex 293 HA-BRAF V600E) [nM] | DC50 ([2]; read-out: BRaf G466V DC50; half maximal degradation, T-Rex 293 HA-BRAF G466V) [nM]
1 | < 5 | 35 to 70 | 1 to 10 | > 70 | O=C1CCC(N2Cc3cc(N4CCC(N5CCN(CC6CN(c7ccc(-c8cnc9[nH]cc(C(=O)c%10c(F)ccc(NS(=O)(=O)N%11CC[C@@H](F)C%11)c%10F)c9c8)cc7)C6)CC5)CC4)ccc3C2=O)C(=O)N1 (stereo partly drawn) [Compound 144, (3R)-N-{3-[5-(4-{3-[(4-{1-[2-(2,6-dioxopiperidin-3-yl)-1-oxo-2,3-dihydro-1H-isoindol-5-yl]piperidin-4-yl}piperazin-1-yl)methyl]azetidin-1-yl}phenyl)-1H-pyrrolo[2,3-b]pyridine-3-carbonyl]-2,4-difluorophenyl}-3-fluoropyrrolidine-1-sulfonamide] | – | –
2 | > 500 | – | > 30 | – | COc1ccc(NS(=O)(=O)N2CC[C@@H](F)C2)c(OC)c1C(=O)c1c[nH]c2ncc(-c3ccc(N4CCC(CN5CCC(c6ccc7c(c6)CN(C6CCC(=O)NC6=O)C7=O)CC5)CC4)cc3)cc12 (stereo partly drawn) [Compound 275, (3R)-N-[3-(5-{4-[4-({4-[2-(2,6-dioxopiperidin-3-yl)-1-oxo-2,3-dihydro-1H-isoindol-5-yl]piperidin-1-yl}methyl)piperidin-1-yl]phenyl}-1H-pyrrolo[2,3-b]pyridine-3-carbonyl)-2,4-dimethoxyphenyl]-3-fluoropyrrolidine-1-sulfonamide] | – | –
3 | 5 to 50 | 35 to 70 | 1 to 10 | > 70 | COc1cc(N2CC3(CN(CCc4ccc(-c5cnc6[nH]cc(C(=O)c7c(F)ccc(NS(=O)(=O)N8CC[C@@H](F)C8)c7F)c6c5)cc4)C3)C2)ccc1C(=O)NC1CCC(=O)NC1=O (stereo partly drawn) [Compound 362, 4-{6-[2-(4-{3-[2,6-difluoro-3-({[(3R)-3-fluoropyrrolidin-1-yl]sulfonyl}amino)benzoyl]-1H-pyrrolo[2,3-b]pyridin-5-yl}phenyl)ethyl]-2,6-diazaspiro[3.3]heptan-2-yl}-N-(2,6-dioxopiperidin-3-yl)-2-methoxybenzamide] | – | –
4 | 50 to 500 | < 35 | 1 to 10 | < 35 | O=C1CC[C@@H](NC(=O)c2ccc(N3CC4(CN(CC5CCN(c6ccc(-c7cnc8[nH]cc(C(=O)c9c(F)ccc(NS(=O)(=O)N%10CC[C@@H](F)C%10)c9F)c8c7)cc6)CC5)C4)C3)cn2)C(=O)N1 [Compound 346, 5-(6-{[1-(4-{3-[2,6-difluoro-3-({[(3R)-3-fluoropyrrolidin-1-yl]sulfonyl}amino)benzoyl]-1H-pyrrolo[2,3-b]pyridin-5-yl}phenyl)piperidin-4-yl]methyl}-2,6-diazaspiro[3.3]heptan-2-yl)-N-[(3R)-2,6-dioxopiperidin-3-yl]pyridine-2-carboxamide] | – | –
5 | 50 to 500 | 35 to 70 | 10 to 30 | 35 to 70 | O=C1CCC(N2Cc3cc(OC4CC5(C4)CN(c4ccc(-c6cnc7[nH]cc(C(=O)c8c(F)ccc(NS(=O)(=O)N9CC[C@@H](F)C9)c8F)c7c6)cc4)C5)ccc3C2=O)C(=O)N1 (stereo partly drawn) [Compound 43, (3R)-N-(3-{5-[4-(6-{[2-(2,6-dioxopiperidin-3-yl)-1-oxo-2,3-dihydro-1H-isoindol-5-yl]oxy}-2-azaspiro[3.3]heptan-2-yl)phenyl]-1H-pyrrolo[2,3-b]pyridine-3-carbonyl}-2,4-difluorophenyl)-3-fluoropyrrolidine-1-sulfonamide] | – | –
6 | 50 to 500 | < 35 | > 30 | – | O=C1CCC(N2Cc3cc(N4CCC(CCC5CCN(c6ccc(-c7cnc8[nH]cc(C(=O)c9c(F)ccc(NS(=O)(=O)N%10CC[C@@H](F)C%10)c9F)c8c7)cc6)CC5)CC4)ccc3C2=O)C(=O)N1 (stereo partly drawn) [Compound 308, (3R)-N-[3-(5-{4-[4-(2-{1-[2-(2,6-dioxopiperidin-3-yl)-1-oxo-2,3-dihydro-1H-isoindol-5-yl]piperidin-4-yl}ethyl)piperidin-1-yl]phenyl}-1H-pyrrolo[2,3-b]pyridine-3-carbonyl)-2,4-difluorophenyl]-3-fluoropyrrolidine-1-sulfonamide] | – | –
7 | 5 to 50 | 35 to 70 | < 1 | 35 to 70 | COc1c(NS(=O)(=O)N2CC[C@@H](F)C2)ccc(F)c1C(=O)c1c[nH]c2ncc(-c3ccc(N4CCC(CN5CCC(c6ccc7c(c6)CN([C@H]6CCC(=O)NC6=O)C7=O)CC5)CC4)cc3)cc12 [Compound 207, (3R)—N-{3-[5-(4-{4-[(4-{2-[(3S)-2,6-dioxopiperidin-3-yl]-1-oxo-2,3-dihydro-1H-isoindol-5-yl}piperidin-1-yl)methyl]piperidin-1-yl}phenyl)-1H-pyrrolo[2,3-b]pyridine-3-carbonyl]-4-fluoro-2-methoxyphenyl}-3-fluoropyrrolidine-1-sulfonamide] | – | –
8 | 50 to 500 | 35 to 70 | 1 to 10 | > 70 | O=C1CCC(N2Cc3cc(N4CCN(CCCCc5ccc(-c6cnc7[nH]cc(C(=O)c8c(F)ccc(NS(=O)(=O)N9CC[C@@H](F)C9)c8F)c7c6)cc5)CC4)ccc3C2=O)C(=O)N1 (stereo partly drawn) [Compound 317, (3R)-N-(3-{5-[4-(4-{4-[2-(2,6-dioxopiperidin-3-yl)-1-oxo-2,3-dihydro-1H-isoindol-5-yl]piperazin-1-yl}butyl)phenyl]-1H-pyrrolo[2,3-b]pyridine-3-carbonyl}-2,4-difluorophenyl)-3-fluoropyrrolidine-1-sulfonamide] | – | –
9 | 50 to 500 | 35 to 70 | 1 to 10 | 35 to 70 | O=C1CCC(N2Cc3cc(N4CCC(CC5CN(c6ccc(-c7cnc8[nH]cc(C(=O)c9c(F)ccc(NS(=O)(=O)N%10CC[C@@H](F)C%10)c9F)c8c7)cc6)C5)CC4)ccc3C2=O)C(=O)N1 (stereo partly drawn) [Compound 302, (3R)-N-[3-(5-{4-[3-({1-[2-(2,6-dioxopiperidin-3-yl)-1-oxo-2,3-dihydro-1H-isoindol-5-yl]piperidin-4-yl}methyl)azetidin-1-yl]phenyl}-1H-pyrrolo[2,3-b]pyridine-3-carbonyl)-2,4-difluorophenyl]-3-fluoropyrrolidine-1-sulfonamide] | – | –
10 | 5 to 50 | 35 to 70 | 1 to 10 | > 70 | Cn1c(=O)n(C2CCC(=O)NC2=O)c2cccc(C3CCN(CC4CCN(c5ccc(-c6cnc7[nH]cc(C(=O)c8c(F)ccc(NS(=O)(=O)N9CC[C@@H](F)C9)c8F)c7c6)cc5)CC4)CC3)c21 (stereo partly drawn) [Compound 337, (3R)—N-(3-(5-(4-(4-((4-(1-(2,6-dioxopiperidin-3-yl)-3-methyl-2-oxo-2,3-dihydro-1H-benzo[d]imidazol-4-yl)piperidin-1-yl)methyl)piperidin-1-yl)phenyl)-1H-pyrrolo[2,3-b]pyridine-3-carbonyl)-2,4-difluorophenyl)-3-fluoropyrrolidine-1-sulfonamide] | – | –
11 | 5 to 50 | > 70 | 1 to 10 | > 70 | O=C1CCC(c2ccc(C3CCN(CC4CCN(c5ccc(-c6cnc7[nH]cc(C(=O)c8c(F)ccc(NS(=O)(=O)N9CC[C@@H](F)C9)c8F)c7c6)cc5)CC4)CC3)cn2)C(=O)N1 (stereo partly drawn) [Compound 365, (3R)-N-[3-(5-{4-[4-({4-[6-(2,6-dioxopiperidin-3-yl)pyridin-3-yl]piperidin-1-yl}methyl)piperidin-1-yl]phenyl}-1H-pyrrolo[2,3-b]pyridine-3-carbonyl)-2,4-difluorophenyl]-3-fluoropyrrolidine-1-sulfonamide] | – | –
12 | 5 to 50 | < 35 | < 1 | < 35 | O=C1CCC(NC(=O)c2ccc(N3CCN(CCN4CCN(c5ccc(-c6cnc7[nH]cc(C(=O)c8c(F)ccc(NS(=O)(=O)N9CC[C@@H](F)C9)c8F)c7c6)cc5)CC4)CC3)cc2F)C(=O)N1 (stereo partly drawn) [Compound 378, 4-(4-{2-[4-(4-{3-[2,6-difluoro-3-({[(3R)-3-fluoropyrrolidin-1-yl]sulfonyl}amino)benzoyl]-1H-pyrrolo[2,3-b]pyridin-5-yl}phenyl)piperazin-1-yl]ethyl}piperazin-1-yl)-N-(2,6-dioxopiperidin-3-yl)-2-fluorobenzamide] | – | –
13 | 5 to 50 | 35 to 70 | < 1 | > 70 | O=C1CC[C@@H](N2Cc3cc(N4CCC(CN5CC6(C5)CN(c5ccc(-c7cnc8[nH]cc(C(=O)c9c(F)ccc(NS(=O)(=O)N%10CC[C@@H](F)C%10)c9F)c8c7)cc5)C6)CC4)c(F)cc3C2=O)C(=O)N1 [Compound 56, (3R)-N-{3-[5-(4-{6-[(1-{2-[(3R)-2,6-dioxopiperidin-3-yl]-6-fluoro-1-oxo-2,3-dihydro-1H-isoindol-5-yl}piperidin-4-yl)methyl]-2,6-diazaspiro[3.3]heptan-2-yl}phenyl)-1H-pyrrolo[2,3-b]pyridine-3-carbonyl]-2,4-difluorophenyl}-3-fluoropyrrolidine-1-sulfonamide] | – | –

Row | Compound | DC50 [1, 3] [nM] | Dmax [1, 4] [%] | DC50 [2, 5] [nM] | Dmax [2, 6] [%] | DC50 ([1]; read-out: BRaf V600E DC50; half maximal degradation, T-Rex 293 HA-BRAF V600E) [nM] | DC50 ([2]; read-out: BRaf G466V DC50; half maximal degradation, T-Rex 293 HA-BRAF G466V) [nM]
14 | CC(C)(C1CCN(c2ccc(-c3cnc4[nH]cc(C(=O)c5c(F)ccc(NS(=O)(=O)N6CC[C@@H](F)C6)c5F)c4c3)cc2)CC1)N1CCN(c2ccc3c(c2)CN(C2CCC(=O)NC2=O)C3=O)CC1 (stereo partly drawn) [Compound 97, (3R)-N-[3-(5-{4-[4-(2-{4-[2-(2,6-dioxopiperidin-3-yl)-1-oxo-2,3-dihydro-1H-isoindol-5-yl]piperazin-1-yl}propan-2-yl)piperidin-1-yl]phenyl}-1H-pyrrolo[2,3-b]pyridine-3-carbonyl)-2,4-difluorophenyl]-3-fluoropyrrolidine-1-sulfonamide] | – | 35 to 70 | – | > 70 | 5 to 50 | 1 to 10
